Patent US9592309B2, “Positron emission tomography probe to monitor selected sugar metabolism in vivo” (The Regents of the University of California, priority 2012, dated 2017)

Legend:
[1] = system: enzymes in the pentose phosphate pathway; assay: Enzymes that metabolize 2-fluoro-2-deoxyarabinose in vitro (FIG. 6); type: in vitro ADME
[2] = molecular target: T1, 5′ FLAG-tagged human ribokinase (Homo sapiens, UniProt Q9H477); assay: Ribokinase assay (kinase reaction with isolated FLAG-tagged ribokinase); type: biochemical; settings: 20 minutes at 37° C., 3 mM ATP
T1 construct: host or cells: 293T cells, transfected with pMSCV-IRES-YFP (pRBKS); captured with anti-FLAG M2 magnetic beads and eluted with FLAG peptide
Description: Human ribokinase plasmid was purchased from OriGene (NM_022128.1). A FLAG sequence was appended 5′ to the ribokinase sequence and the FLAG-tagged ribokinase was subcloned into the retroviral vector pMSCV-IRES-YFP (pRBKS). 293T cells were transfected with the pRBKS vector and Lipofectamine 2000 (Invitrogen) according to manufacturer's protocol. Cells were lysed in RIPA buffer (1% NP-40, 1% Sodium deoxycholate, 0.3% Sodium dodecyl sulfate, […], 1 mM EDTA, 50 mM Tris-HCl pH 6.8). Protein concentration was determined by the BCA Protein Assay Kit (Pierce), and FLAG-tagged ribokinase was captured from 1 mg of lysate with anti-FLAG M2 Magnetic Beads (Sigma) and eluted with 100 μL of FLAG peptide (Sigma), as per the manufacturer's protocol. Cells not transfected with RBKS were lysed as a control.
1 μL of FLAG-tagged ribokinase or control eluent was added to 50 mM Tris-HCl, pH 7.8, 3 mM ATP, 100 mM KCl, 10 mM MgCl2, 1× protease inhibitor cocktail (Roche), and 1 μCi [^3H]-Ribose (Moravek) or [^18F]-FDA in a 10 μL volume. […] In the case of [^3H]-ribose, the samples were dried, placed into scintillation vials, 3 mL of Bio-Safe NA (RPI Corp) was added to each vial, and the samples were measured on a scintillation counter. In the case of [^18F]-FDA, the samples were placed into scintillation vials and counted on a gamma counter. […]

[3] = system: non-oxidative pentose phosphate pathway; assay: Mass spectrometry analysis of 2-fluoro-2-deoxyarabinose metabolites in mouse organs (MRM LC-MS); type: in vivo; settings: mice
Description: Mice (8-12 weeks old) were treated with 25 μL of 500 mM 2-fluoro-2-deoxyarabinose. 1 hour later, the mice were sacrificed and the metabolites from distinct organs were extracted with 3× with 80% MeOH. Extracted metabolites were dried and analyzed by multiple reaction monitoring liquid chromatography-mass spectrometry (MRM LC-MS).

[4] = Positron emission tomography / computed tomography imaging of mice; type: in vivo; settings: for tissues in which the probe selectively accumulates: mice, positron emission tomography
Description: Positron Emission Tomography, Computed Tomography Imaging. 6-12-week old C57BL/6J female mice and 12-week old female B6.V-Lep^ob/J (Ob/Ob) mice were purchased from the Jackson Laboratory. Animals were anesthetized with 2% isofluorane and injected intravenous in the tail vein with 75-150 μCi of [^18F]-FDA. One hour post-injection, the mice were imaged for 10 minutes on a Siemens Inveon PET scanner and 10 minutes on a MicroCAT II CT system. […] Journal of Digital Imaging 17 (3), 205 (2004)).

T1 sequence (Q9H477 whole entry): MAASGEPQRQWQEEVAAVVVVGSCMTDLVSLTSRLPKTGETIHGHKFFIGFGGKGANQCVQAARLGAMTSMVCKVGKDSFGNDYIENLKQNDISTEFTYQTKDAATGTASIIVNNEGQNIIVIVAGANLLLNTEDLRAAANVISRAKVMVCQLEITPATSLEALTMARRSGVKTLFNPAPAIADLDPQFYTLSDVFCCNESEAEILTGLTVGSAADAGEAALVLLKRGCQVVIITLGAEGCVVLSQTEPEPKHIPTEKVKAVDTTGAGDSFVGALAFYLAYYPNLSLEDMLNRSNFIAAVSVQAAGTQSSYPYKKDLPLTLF

Compound	metabolism by enzymes in vitro [1]	phosphorylation by isolated ribokinase [2]	metabolic pathway and metabolite in vivo ([3]; in vivo)	tissues that metabolize the probe ([3]; metabolite studies)	localization of probe to the liver ([4]; 12 week old C57Bl/6 female (wild-type) mice, 1 hour, PET/CT)	tissues in which the probe selectively accumulates [4]	tissues in which the probe selectively accumulates ([4]; listed as 18F labelled 2-fluoro-2-deoxyarabinose)
OC[C@H]1O[C@@H](O)C([18F])C1O (some centres unmarked) [[^18F]-FDA, [^18F]-2-fluoro-2-deoxyarabinose]	enzymes in the pentose phosphate pathway metabolize	phosphorylates	metabolized in vivo by the non-oxidative pentose phosphate pathway to 4-fluoro-4-deoxysedoheptulose-7-phosphate	metabolized by tissues in addition to the liver, including the spleen, muscles, heart, blood, thyroid, and kidneys	localizing significantly to the liver	accumulates in organs with high levels of ribokinase	murine liver, kidney and intestinal tissues
[^3H]-Ribose [reference compound]	–	phosphorylates	–	–	–	–	–
